Results as given in ChEMBL document CHEMBL1201862, “PubChem BioAssay data set” (2004).
The source made the active and inactive calls.

Key:
[1] = Vero E6 cell cytotoxicity, dose response, cytotoxicity control for non-replicating M. tuberculosis project, secondary assay (AID 492998); type: functional, VeroE6; conditions: Vero C1008
cells = type: functional
HeLa = assay: Cytotoxicity counterscreen assay for transcriptional activators of heat shock protein 70 (Hsp70). [Related pubchem assays: 1203, 1252 ]; type: functional; conditions: Homo sapiens;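 also: cells exposed to compound for 16 hours before readout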
[2] = molecular target: T1, Neuropeptide Y receptor type 2 (Homo sapiens, UniProt P49146); assay: NPY-Y2 antagonist potency, selectivity check, dose response, counter-screen for NPY-Y1 antagonist project, cell-based (AID 1278); type: functional
[3] = molecular target: T2, Neuropeptide Y receptor type 1 (Homo sapiens, UniProt P25929); assay: NPY-Y1 receptor antagonist potency, dose response, cell-based (AID 1277); type: functional
[4] = molecular target: T1, Neuropeptide Y receptor type 2; type: functional, cell-based
[5] = molecular target: T2, Neuropeptide Y receptor type 1; type: functional
Estrogen receptor = molecular target: T3, Estrogen receptor (Homo sapiens, UniProt P03372); assay: potentiators of ERα–SRC-1 coactivator binding, dose response, biochemical, TR-FRET, ERα LBD (AID 737)
T3 sequence (P03372 whole entry): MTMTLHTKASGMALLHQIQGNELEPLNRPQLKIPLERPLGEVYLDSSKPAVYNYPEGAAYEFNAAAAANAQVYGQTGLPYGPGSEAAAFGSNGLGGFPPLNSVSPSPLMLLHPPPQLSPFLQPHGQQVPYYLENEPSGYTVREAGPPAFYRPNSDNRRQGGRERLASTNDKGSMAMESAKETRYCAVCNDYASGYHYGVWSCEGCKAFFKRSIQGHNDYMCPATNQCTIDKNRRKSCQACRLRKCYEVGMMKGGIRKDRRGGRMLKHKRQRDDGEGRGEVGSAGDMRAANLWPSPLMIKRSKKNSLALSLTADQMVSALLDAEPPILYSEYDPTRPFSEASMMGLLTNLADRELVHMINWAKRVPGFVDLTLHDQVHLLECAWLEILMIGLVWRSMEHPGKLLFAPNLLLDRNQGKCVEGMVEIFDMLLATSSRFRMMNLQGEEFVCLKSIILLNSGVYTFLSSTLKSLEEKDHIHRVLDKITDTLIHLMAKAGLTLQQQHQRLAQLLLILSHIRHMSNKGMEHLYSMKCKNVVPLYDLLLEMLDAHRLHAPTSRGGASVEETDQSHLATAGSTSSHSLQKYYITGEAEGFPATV

[6] = molecular target: Epstein-Barr nuclear antigen 1 (Epstein-Barr virus (strain B95-8) (HHV-4) (Human herpesvirus 4), UniProt P03211); assay: EBNA-1 inhibitors, dose response, biochemical, fluorescence polarization, 1536-well (AID 2381); design: species or system human gammaherpesvirus 4;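 also: fluorescence polarization of a Cy5 DNA probe bound by EBNA-1 protein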
[7] = molecular target: Lytic switch protein BZLF1 (Epstein-Barr virus (strain B95-8) (HHV-4) (Human herpesvirus 4), UniProt P03206); assay: EBV ZTA inhibitors, dose response, counter-screen for EBNA-1 inhibitor project, biochemical, fluorescence polarization, Epstein-Barr virus, 1536-well (AID 2377); design: species or system human gammaherpesvirus 4;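 also: fluorescence polarization of Cy5-labelled ZRE DNA probe bound by purified Zta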
[8] = enhancers of respiration in Yfh1-depleted yeast, dose response, Friedreich's ataxia, plus single-dose screen (AID 1465); type: functional;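 also: yeast depleted of Yfh1p frataxin homolog grown on glycerol needing respiration; WST-1 tetrazolium dye reduction as measure of cellular dehydrogenase metabolic activity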
[9] = molecular target: T4, Mannose-6-phosphate isomerase (Homo sapiens, UniProt P34949); assay: inhibitors of human PMI, primary screen, biochemical, fluorescence intensity, coupled assay (AID 1209)
T4 sequence (P34949 whole entry): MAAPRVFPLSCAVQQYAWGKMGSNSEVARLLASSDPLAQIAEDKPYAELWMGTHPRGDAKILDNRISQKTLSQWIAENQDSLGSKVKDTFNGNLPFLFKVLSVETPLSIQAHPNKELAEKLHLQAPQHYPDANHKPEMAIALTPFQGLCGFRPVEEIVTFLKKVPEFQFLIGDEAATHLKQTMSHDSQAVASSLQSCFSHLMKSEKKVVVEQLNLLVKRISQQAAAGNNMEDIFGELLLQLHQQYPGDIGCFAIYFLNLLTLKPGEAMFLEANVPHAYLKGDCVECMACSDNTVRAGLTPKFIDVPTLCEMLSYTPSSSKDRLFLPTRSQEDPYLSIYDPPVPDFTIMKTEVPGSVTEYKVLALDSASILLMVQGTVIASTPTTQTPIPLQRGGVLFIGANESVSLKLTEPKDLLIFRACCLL

[10] = molecular target: FAD-linked sulfhydryl oxidase ALR (Homo sapiens, UniProt P55789); assay: inhibitors of human ALR sulfhydryl oxidase, dose response, biochemical, H2O2 detection, luminescence, cherry-pick (AID 493248)
[11] = molecular target: T4, Mannose-6-phosphate isomerase; assay: human PMI inhibitors, high substrate, primary screen, biochemical, fluorescence intensity, high mannose 6-phosphate (AID 1220)
NADPH oxidase 1 = NADPH oxidase 1 (Homo sapiens, UniProt Q9Y5S8); type: functional, cell-based;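 also: Cell-based assay with luminescence read-out, IC50 derived from inhibitor dose-response curves; intracellular ROS from endogenous NOX1 in intact HT29 colon cancer cells; potency of inhibitors that lower the ROS luminescence signal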
Sequence of NADPH oxidase 1 (Q9Y5S8 whole entry): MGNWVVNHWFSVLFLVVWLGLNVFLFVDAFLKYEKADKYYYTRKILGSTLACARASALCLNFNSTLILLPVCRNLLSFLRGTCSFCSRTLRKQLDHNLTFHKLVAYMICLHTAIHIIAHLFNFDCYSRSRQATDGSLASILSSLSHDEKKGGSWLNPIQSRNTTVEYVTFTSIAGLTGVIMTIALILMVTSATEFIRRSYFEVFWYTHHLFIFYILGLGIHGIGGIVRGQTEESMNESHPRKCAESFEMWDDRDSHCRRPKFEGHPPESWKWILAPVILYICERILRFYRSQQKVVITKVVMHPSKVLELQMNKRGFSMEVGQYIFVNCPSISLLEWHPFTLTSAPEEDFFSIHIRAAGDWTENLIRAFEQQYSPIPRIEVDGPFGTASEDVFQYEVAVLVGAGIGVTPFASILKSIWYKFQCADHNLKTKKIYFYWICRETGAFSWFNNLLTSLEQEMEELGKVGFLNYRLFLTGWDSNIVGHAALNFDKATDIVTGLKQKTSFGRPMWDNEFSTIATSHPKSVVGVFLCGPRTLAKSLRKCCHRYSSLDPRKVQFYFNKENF

T1 sequence (P49146 whole entry): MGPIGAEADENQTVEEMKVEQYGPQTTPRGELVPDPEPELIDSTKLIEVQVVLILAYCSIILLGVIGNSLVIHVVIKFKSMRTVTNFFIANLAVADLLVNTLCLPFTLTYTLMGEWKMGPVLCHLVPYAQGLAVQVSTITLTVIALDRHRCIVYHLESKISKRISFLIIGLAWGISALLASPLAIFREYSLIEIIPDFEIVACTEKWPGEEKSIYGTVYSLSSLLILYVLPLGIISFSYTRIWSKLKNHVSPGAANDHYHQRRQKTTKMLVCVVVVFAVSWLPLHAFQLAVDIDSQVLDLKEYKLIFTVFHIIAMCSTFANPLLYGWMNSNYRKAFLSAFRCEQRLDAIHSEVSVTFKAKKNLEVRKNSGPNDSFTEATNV
T2 sequence (P25929 whole entry): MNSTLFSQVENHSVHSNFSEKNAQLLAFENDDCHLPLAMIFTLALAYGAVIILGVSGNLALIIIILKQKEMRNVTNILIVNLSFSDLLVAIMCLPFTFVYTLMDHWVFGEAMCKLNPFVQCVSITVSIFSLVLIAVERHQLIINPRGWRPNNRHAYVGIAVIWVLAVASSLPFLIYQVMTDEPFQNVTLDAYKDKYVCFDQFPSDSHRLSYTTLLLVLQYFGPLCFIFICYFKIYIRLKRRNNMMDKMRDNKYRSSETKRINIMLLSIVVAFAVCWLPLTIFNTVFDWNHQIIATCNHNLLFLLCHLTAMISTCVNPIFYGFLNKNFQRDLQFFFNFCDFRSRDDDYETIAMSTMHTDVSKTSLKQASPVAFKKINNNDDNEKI
Sequence of FAD-linked sulfhydryl oxidase ALR (P55789 whole entry): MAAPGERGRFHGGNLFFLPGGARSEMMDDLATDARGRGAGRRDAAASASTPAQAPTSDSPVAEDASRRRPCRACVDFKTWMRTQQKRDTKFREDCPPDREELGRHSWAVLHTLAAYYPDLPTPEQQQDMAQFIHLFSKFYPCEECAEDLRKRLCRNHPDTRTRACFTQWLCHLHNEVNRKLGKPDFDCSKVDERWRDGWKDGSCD
Sequence of Lytic switch protein BZLF1 (P03206 whole entry): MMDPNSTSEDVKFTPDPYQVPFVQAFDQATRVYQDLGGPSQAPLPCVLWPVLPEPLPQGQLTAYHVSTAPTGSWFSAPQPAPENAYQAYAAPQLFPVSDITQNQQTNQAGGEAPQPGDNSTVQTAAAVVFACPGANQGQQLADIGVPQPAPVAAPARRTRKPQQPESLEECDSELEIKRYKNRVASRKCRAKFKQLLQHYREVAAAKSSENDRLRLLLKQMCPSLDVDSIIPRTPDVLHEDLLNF
Sequence of Epstein-Barr nuclear antigen 1 (P03211 whole entry): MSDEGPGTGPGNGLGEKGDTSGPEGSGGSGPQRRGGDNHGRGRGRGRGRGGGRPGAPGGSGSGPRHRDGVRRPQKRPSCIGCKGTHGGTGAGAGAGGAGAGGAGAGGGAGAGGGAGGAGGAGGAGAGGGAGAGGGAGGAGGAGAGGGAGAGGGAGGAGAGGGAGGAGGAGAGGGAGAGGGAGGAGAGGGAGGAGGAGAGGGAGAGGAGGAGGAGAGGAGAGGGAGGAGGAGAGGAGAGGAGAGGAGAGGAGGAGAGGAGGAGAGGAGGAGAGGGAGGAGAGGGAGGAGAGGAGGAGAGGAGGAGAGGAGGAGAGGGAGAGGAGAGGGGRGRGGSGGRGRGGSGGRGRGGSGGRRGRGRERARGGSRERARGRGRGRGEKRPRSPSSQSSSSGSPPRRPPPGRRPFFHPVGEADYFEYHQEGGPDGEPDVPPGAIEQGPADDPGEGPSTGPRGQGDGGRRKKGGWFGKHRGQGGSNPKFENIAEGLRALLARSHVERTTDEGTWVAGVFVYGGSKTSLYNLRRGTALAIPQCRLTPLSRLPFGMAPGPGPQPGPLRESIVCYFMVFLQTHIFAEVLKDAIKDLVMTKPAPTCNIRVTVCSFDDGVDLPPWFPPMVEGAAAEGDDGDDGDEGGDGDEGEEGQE

Which CC50 [1] does the source give for O=[N+]([O-])c1ccccc1C1Nc2cccc3cccc(c23)N1 here?
The CC50 was 14.6 µM (active).

What about the IC50 (cells) of the same compound?
Its IC50 is 27.2 µM (active).

What about the CC50 (HeLa) of the same compound?
The CC50 was > 99 µM (not active).

Which IC50 [2] does the source give for Cc1ccc(COC(=O)c2nn(-c3ccccc3)nc2N)cc1 here?
The IC50 was 10.6 µM (not active).

What about the IC50 [3] of the same compound?
Its IC50 is 12 µM (not active).

With Cc1ccc(C)c(NS(=O)(=O)c2cc(C(=O)Nc3ccccc3-c3ccccc3)ccc2C)c1 as the compound, how does the IC50 [4] read?
The IC50 was 0.298 µM (active).

And the IC50 [5]?
Its IC50 is > 35 µM (not active).

With CCOc1ccccc1-c1nc(-c2ccc(NC(=O)c3ccc(Br)o3)cc2)no1 as the compound, how does the EC50 (Estrogen receptor) read?
The EC50 was 12.7 µM (active).

Which IC50 [6] does the source give for Cc1cc(C(=O)OCC(=O)c2c(N)n(C)c(=O)n(C)c2=O)c(C)n1-c1ccccc1 here?
The IC50 was 13.1 µM (not active).

And the IC50 [7]?
Its IC50 is > 111 µM (not active).

Which EC50 [8] does the source give for CC(C)NC(=O)/C(C#N)=C\c1ccc(N(C)C)o1 here?
The EC50 was > 100 µM (active).

For Cn1cnnc1SCc1ccc(C(=O)N/N=C(\CCC(=O)O)c2ccc(C(C)(C)C)cc2)cc1, which IC50 [9] is on record?
The IC50 was > 50 µM (not active).

What about the AC50 [10] of the same compound?
Its AC50 is 0.755 µM (active).

And the IC50 [11]?
The IC50 was > 50 µM (not active).

With COc1cc(-c2nc(-c3ccccc3)c(-c3ccccc3)[nH]2)cc(OC)c1O as the compound, how does the IC50 (NADPH oxidase 1) read?
The IC50 was 0.517 µM (active).
